# Reference: patent publication US5955508A, “Method for the enhancement of lymphocyte activity against opportunistic microbial pathogens” (priority 1996, dated 1999)
# Assays:
# T-cell counts = conditions: AIDS patients; fenfluramine with phentermine; cited from earlier work
# [1] = system: human percoll-fractionated peripheral blood lymphocytes mediated NK activity; conditions: in vitro, cited from earlier work
# fungal infections = conditions: AIDS patients; cited from earlier work
# K562 human tumor cells = test: Natural killer cell cytotoxicity of human PBMC against K562 tumor cells in vitro; type: cell-based
# Method: Prior to conducting the above experiment, we examined the dose dependent effects of d-FEN on the ability of human PBMC obtained from five healthy volunteers (person Caucasians) to kill human K562 tumor cells in vitro. The potential cytotoxic enhancing effects of d-FEN and d-norFEN were compared using PBMC from two of the five human donors.
# For assessment of immunological parameters of human PBMC, venous blood as aseptically drawn into sterile 10 ml tubes containing 20 U/ml preservative free heparin, diluted with an equal volume of Hank's Balanced Salt Solution (HBSS), layered over Lymphocyte Separation Medium (LSM, Bionetics, Kensington, Md.) and centrifuged at 1,000 ×g for 30 min. After centrifugation, the mononuclear cell layer was recovered from the interface and washed twice in HBSS and enumerated.
# The K562 cell line originated from a chronic myelogenous leukemia patient and was obtained from Dr. T. Ellis (Director, Cellular Immunology Laboratory, LUMC). The K562 cells used for assessment of cytotoxic activity were maintained in long term cultures using Corning 25 cm^2 tissue culture flasks (Corning Glass Works, Corning, N.Y.) containing RPMI 1640 (Gibco Laboratories, Grand Island, N.Y.) supplemented with low LPS 10% fetal bovine serum (FBS; Gibco), 100 units/ml penicillin, 100 μg/ml streptomycin (Whittaker M. A. Bioproducts, Walkersville, Md.), 0.1 mM non-essential amino acids, and 2 mM L-glutamine (Gibco). This medium was used throughout, except where noted, and is referred to as "culture medium". The K562 cells were grown in suspension and were passaged three times per week by transfer of 10^6 K562 cells into a flask containing 10 ml of fresh culture medium. The K562 cells injected into the SCID mice were supplemented with fresh medium at a 1:3 dilution the day before administration. They were washed once in medium, pelleted by centrifugation at 500 ×g for 10 min., then resuspended at a concentration of 5×10^7. Subsequently, 0.2 ml (1×10^7 cells) of the cell suspension was injected (i.p.) into each SCID mouse. The K562 cells were administered to the animals four days after the injection of PBMC.
# The K562 tumor cell lines maintained in vitro were washed once in culture medium, pelleted by centrifugation at 500×g for 10 min and resuspended in approximately 0.1 ml of culture medium. Subsequently, 100 μCi of [^51 Cr] (New England Nuclear, Boston, Mass.) was added to 1×10^5 cells in a final volume of 0.2 ml. The cells were incubated at 37° C. with 5% CO2 for 1 h with agitation every 10 min, then washed 3 times in HBSS, resuspended to 5×10^4 cells/ml in culture medium and 0.1 ml (5×10^3) aliquoted to each well of a 96 well round bottom assay plate (Corning Glass Works, Corning, N.Y.). Radiolabelled K562 was cultured for 4 h with lymphocytes at effector to target ratios ranging from 50:1 to 6:1. Following 4 h of culture the media was removed using a Skatron harvesting press (Skatron Inc., Sterling, Va.) and associated radioactivity determined. Maximum release was obtained by adding 0.05% Nonidet P-40 (Sigma Chemical Co., St. Louis, Mo.).
# The results have been expressed as % cytotoxicity and calculated by the formula: % cytotoxicity=[(experimental DPM-minimum DPM)/(maximum DPM-minimum DPM)]×100.
# All experimental means were calculated from triplicate values. Lytic units (LU) were calculated using a computer program written by David Coggins, FCRC, Frederick, Md.
# [2] = Plasma d-FEN and d-norFEN levels and half-life in mice; type: in vivo; conditions: mouse; d-FEN p.o. in drinking water; sacrificed 11:00-13:00 h
# Method: Mice like rats are prandial drinkers during the dark period of the light-dark cycle. The animals were sacrificed between 11:00 and 13:00 h, 4-6 h after the end of the dark period.
# [3] = mouse; cited from earlier work
smiles,measurement,setting,value
CCNC(C)Cc1cccc(C(F)(F)F)c1 (racemic) [fenfluramine],T-cell counts in words,T-cell counts,significant improvement of their T-cell counts
NCCc1c[nH]c2ccc(O)cc12 [5-HT],effect on NK activity in words,[1]; 5-HT dose dependent,stimulatory effects
same,duration of NK stimulation,[1],16 h
C[C@@H]1[C@H](O)[C@@H](C)/C=C/C=C/C=C/C=C/C=C/C=C/C=C/[C@H](O[C@@H]2O[C@H](C)[C@@H](O)[C@H](N)[C@@H]2O)C[C@@H]2O[C@](O)(C[C@@H](O)C[C@@H](O)[C@H](O)CC[C@@H](O)C[C@@H](O)CC(=O)O[C@H]1C)C[C@H](O)[C@H]2C(=O)O [amphotericin B],effect on fungal infections in words,fungal infections,"can suppress fungal infections, but for the first time appear to have no curative effect in AIDS patients"
C[C@H](N)Cc1cccc(C(F)(F)F)c1 [d-norFEN],percent increase in cytotoxicity,"K562 human tumor cells; 0.25 ng/ml, DONOR #1",29%
same,percent increase in cytotoxicity,"K562 human tumor cells; 0.25 ng/ml, DONOR #2",19%
same,percent increase in cytotoxicity,"K562 human tumor cells; 0.50 ng/ml, DONOR #1",24%
same,percent increase in cytotoxicity,"K562 human tumor cells; 0.50 ng/ml, DONOR #2",28%
same,percent increase in cytotoxicity,"K562 human tumor cells; 1.00 ng/ml, DONOR #1",11%
same,percent increase in cytotoxicity,"K562 human tumor cells; 1.00 ng/ml, DONOR #2",13%
same,d-FEN vs d-norFEN effect on cytotoxicity in words,K562 human tumor cells; PBMC of two donors,virtually identical effects
same,"effect on capacity of human NK cells to kill K562, in words",K562 human tumor cells; conclusion,"augments the capacity of human NK cells to kill the human tumor cell line, K562"
same,plasma d-FEN and d-norFEN levels at sacrifice,[2],Neither d-FEN nor d-norFEN was detected
same,t1/2,[3],6 h
